# US20210162028A1, “Methods for Inducing Intermittent Fasting and Modulating Autophagy” (The Hong Kong Polytechnic University, priority 2019, published 2021)
# “Also recorded” adds a separate entry of the source.
# Tests used:
# Assay type in all cases: in vivo, mouse
# [1] = Hepatic steatosis (oil Red O / H&E staining, liver triglyceride); conditions: DIO C57BL/6J male mice on HFD, 11 weeks after treatment
# [2] = Glucose tolerance test (GTT); conditions: DIO C57BL/6J male mice on HFD, after 7 weeks
# [3] = Fat pad and organ mass at end of treatment; conditions: DIO C57BL/6J male mice on HFD
# [4] = Insulin tolerance test (ITT); conditions: DIO C57BL/6J male mice on HFD, after 6 weeks
# From the text: In terms of reversing insulin resistance on pre-existing obese mice, insulin tolerance test (ITT) was employed (FIG. 59).
# In terms of reversing insulin resistance on pre-existing obese mice, insulin tolerance test (ITT) was employed (FIG. 68A).
# [5] = Bodyweight of treated mice; conditions: DIO C57BL/6J male mice on HFD
# [6] = Daily food intake / 7-day intermittent fasting cycle in mice; conditions: DIO C57BL/6J male mice on HFD
# From the text: One of the most noticeable effects of intermittent fasting is reduction of bodyweight. […] Specifically, C57BL/6J, which is the most commonly used mouse strain for polygenic obesity model, was used in the study. It is well-reported that C57BL/6J male mice feeding on a high-fat diet will have prominent weight gain, become obese and develop hyperinsulinemia, hyperglycemia, impaired glucose tolerance and insulin resistance [Gallou-Kabani et al., 2007, Obesity 15(8):1996-2005]. Obesity was induced in C57BL/6J male mice via feeding ad libitum a high-fat diet containing 60 kcal % fat (HFD; Research Diets, D12492) for 12-14 weeks starting from 5-week old. These mice are referred as diet-induced obese (DIO) mice. DIO mice were stratified according to bodyweight into 2 groups. […] Both groups of mice continued to feed ad libitum on the HFD throughout the treatment period. One group of age-matched C57BL/6J male mice feeding ad libitum on an ordinary rodent chow diet (CD; LabDiet, 50IF/6F) and injected with vehicle served as the lean control [CD (vehicle) group]. Food intake and bodyweight of mice were measured daily. […] DIO mice were injected with rhArg on Day 0, which was Day 7 of the previous cycle. Similarly, Day 7 of the cycle shown in FIG. 1B was Day 0 of the next cycle. […] Bodyweight gain is one of the biomarkers related to aging.
# C57BL/6J male mice were fed a high-fat diet from 5-week old for 12 weeks. They were then stratified into 3 groups according to their bodyweight and individually caged: (i) one group of mice received i.p. injection of 600 U N-ABD094-rhArg (SEQ ID NO: 50) once a week [HFD (rhArg) group] and was fed ad libitum the HFD for 5 weeks; (ii) one group of mice received i.p. injection of saline once a week, and was fed a predetermined amount of HFD on each day to artificially create a 7-day intermittent fasting cycle that mimics the pattern of food intake of mice administered once a week with rhArg [HFD (artificial IF) group)]; (iii) one group of mice was injected with saline once a week and was fed ad libitum the HFD [HFD (vehicle) group].
# hepatocyte = assay: Transmission electron microscopy of liver (hepatocytes); conditions: DIO C57BL/6J male mice on HFD, 3 weeks, Day 3
# From the text: FIG. 47 illustrates the liver examined by transmission electron microscopy at Day 1, Day 3, Day 5 and Day 7 of the 7-day intermittent after N-ABD094-rhArg injection.
# The presence of autophagosome in liver after treatment for 3 weeks were examined by TEM (FIGS. 62, 63 and 64).
# The presence of autophagosome in liver after treatment for 3 weeks were examined by transmission electron microscopy (FIGS. 71 and 72).
# [7] = rhArg weekly and/or 0.33 mg/day RA
# [8] = rhArg once a week alone or 0.33 mg RA daily alone
# [9] = rhArg weekly and/or 0.33 mg RA daily
# [10] = 300 U/week rhArg and/or 300 mg/kg metformin
# [11] = 300 U rhArg once a week and/or 300 mg/kg metformin daily
smiles,measurement,setting,value
"CC1=C(/C=C/C(C)=C/C=C/C(C)=C/C(=O)O)C(C)(C)CCC1 [RA, all-trans retinoic acid, reference compound]",Lipid in liver (H&E staining),[1]; rhArg and/or RA,significant effect on diminishing lipid in liver
same,Glucose tolerance in GTT,[2]; [7],cannot relieve glucose intolerance
same,"Mass of organs including liver, pancreas and BAT",[3]; [8],can already reduce the mass of most organs
same,Visceral and subcutaneous fat mass,[3]; rhArg once a week and/or 0.33 mg RA daily,did not reduce body fat
same,Insulin sensitivity in ITT,[4]; [7],marginal effect on improving insulin sensitivity but not reach statistical significant
same,Change in bodyweight under single treatment,[5]; [8],"could only prevent further gain in bodyweight, but did not result in weight loss; also recorded: stable body weight without further increase"
same,Pattern of food intake (intermittent fasting cycle),[6]; 200 U rhArg i.p. once a week and/or 0.33 mg RA daily,stable
same,"Total food intake per week, less than HFD (vehicle) group","[6]; 200 U rhArg i.p. once a week and/or 0.33 mg RA daily by gastric feeding, 10 weeks","slight, but insignificant decrease"
same,TEM of liver: autophagosomes,hepatocyte; [9],autophagosome was rarely seen; also recorded: no autophagosome is observed
same,TEM of liver: lipid droplets,hepatocyte; [9],significant decrease in lipid droplet size
"CN(C)C(=N)N=C(N)N [metformin, reference compound]",Lipid in liver (H&E staining),[1]; rhArg and/or metformin,slight effect of diminishing lipid in liver
same,Glucose tolerance in GTT,[2]; [10],cannot relieve glucose intolerance
same,"Mass of organs including liver, kidney and BAT",[3]; [11],cannot reduce the mass of most organs
same,Visceral and subcutaneous fat mass,[3]; [11],did not reduce body fat
same,Insulin sensitivity in ITT,[4]; [10],cannot relieve insulin resistant
same,Change in bodyweight under single treatment,[5]; 300 U rhArg once a week alone or 300 mg/kg metformin daily alone,stable body weight without further increase in body mass
same,Change in bodyweight under single treatment,"[5]; 300 U rhArg once a week alone or 300 mg/kg metformin daily alone, listed as Met","could only prevent further gain in bodyweight, but did not result in weight loss"
same,Pattern of food intake (intermittent fasting cycle),[6]; 300 U rhArg i.p. once a week and/or 300 mg/kg metformin daily,stable
same,"Total food intake per week, less than HFD (vehicle) group","[6]; 300 U rhArg i.p. once a week and/or 300 mg/kg metformin daily by gastric feeding, 9 weeks",13%
same,TEM of liver: autophagosomes,hepatocyte; [10],no autophagosome is observed; also recorded: autophagosome was rarely seen
same,TEM of liver: lipid droplets,hepatocyte; [10],significant decrease in lipid droplet size
